Literature values as cited in US8450339B2, “Compositions for treatment of common cold” (Takeda Pharma A/S, priority 2001, dated 2013).
Structures can show the parent of a compound that is named as a salt.

Experiments:
[1] = following administration
[2] = aqueous solution

SMILES: CC(C)[N+]1(C)[C@@H]2CC[C@H]1CC(OC(=O)C(CO)c1ccccc1)C2.[Br-] (some centres unmarked) [ipratropium bromide]
- Mean duration of effect [1]: 6 h

SMILES: Cc1cc(C(C)(C)C)cc(C)c1CC1=NCCN1 [xylometazoline hydrochloride]
- Stability optimum, pH [2]: 2
